# Experimental data reported in ChEMBL document CHEMBL4433259, “Rifamycin derivatives active against pathogenic rapidly-growing mycobacteria” (Bioorg Med Chem Lett, 2019).
# Activity calls are given as the source filed them. No cut-off for these calls is given here.
# Assays:
# [1] = system: Mycobacteroides abscessus; assay: Antimycobacterial activity against Mycobacterium abscessus ATCC 19977 assessed as inhibition zone diameter at 3.125 ng after 3 days by disc diffusion method; assay type: functional
# [2] = Antimycobacterial activity against Mycobacterium abscessus subsp. massiliense assessed as reduction in microbial growth by CLSI method; assay type: functional; conditions: Mycobacteroides abscessus
# [3] = Antimycobacterial activity against Mycobacterium abscessus subsp. bolletii assessed as reduction in microbial growth by CLSI method; assay type: functional; conditions: Mycobacteroides abscessus
# [4] = system: Mycolicibacterium fortuitum; assay: Antimycobacterial activity against Mycobacterium fortuitum assessed as reduction in microbial growth by CLSI method; assay type: functional
# [5] = system: Mycobacteroides chelonae; assay: Antimycobacterial activity against Mycobacterium chelonae assessed as reduction in microbial growth by CLSI method; assay type: functional
# [6] = Antimycobacterial activity against Mycobacterium abscessus subsp. abscessus assessed as reduction in microbial growth by CLSI method; assay type: functional; conditions: Mycobacteroides abscessus
# [7] = system: Mycolicibacterium smegmatis; assay: Antimycobacterial activity against Mycobacterium smegmatis assessed as reduction in microbial growth by CLSI method; assay type: functional
# [8] = system: Mycobacteroides abscessus; assay: Antimycobacterial activity against Mycobacterium abscessus ATCC 19977 assessed as inhibition zone diameter at 800 ng after 3 days by disc diffusion method; assay type: functional
# [9] = system: Mycobacteroides abscessus; assay: Antimycobacterial activity against Mycobacterium abscessus ATCC 19977 assessed as inhibition zone diameter at 400 ng after 3 days by disc diffusion method; assay type: functional
# [10] = system: Mycobacteroides abscessus; assay: Antimycobacterial activity against Mycobacterium abscessus ATCC 19977 assessed as inhibition zone diameter at 200 ng after 3 days by disc diffusion method; assay type: functional
# [11] = system: Mycobacteroides abscessus; assay: Antimycobacterial activity against Mycobacterium abscessus ATCC 19977 assessed as inhibition zone diameter at 100 ng after 3 days by disc diffusion method; assay type: functional
# [12] = system: Mycobacteroides abscessus; assay: Antimycobacterial activity against Mycobacterium abscessus ATCC 19977 assessed as inhibition zone diameter at 50 ng after 3 days by disc diffusion method; assay type: functional
# [13] = system: Mycobacteroides abscessus; assay: Antimycobacterial activity against Mycobacterium abscessus ATCC 19977 assessed as inhibition zone diameter at 25 ng after 3 days by disc diffusion method; assay type: functional
# [14] = system: Mycobacteroides abscessus; assay: Antimycobacterial activity against Mycobacterium abscessus ATCC 19977 assessed as inhibition zone diameter at 12.5 ng after 3 days by disc diffusion method; assay type: functional
# [15] = system: Mycobacteroides abscessus; assay: Antimycobacterial activity against Mycobacterium abscessus ATCC 19977 assessed as inhibition zone diameter at 6.25 ng after 3 days by disc diffusion method; assay type: functional
# [16] = system: Mycobacteroides abscessus; assay: Antimycobacterial activity against Mycobacterium abscessus ATCC 19977 assessed as inhibition zone diameter at 1.56 ng after 3 days by disc diffusion method; assay type: functional
# [17] = system: Mycobacteroides abscessus; assay: Antimycobacterial activity against Mycobacterium abscessus FM0058 clinical isolate assessed as inhibition zone diameter at 800 ng after 3 days by disc diffusion method; assay type: functional
# [18] = system: Mycobacteroides abscessus; assay: Antimycobacterial activity against Mycobacterium abscessus FM0058 clinical isolate assessed as inhibition zone diameter at 400 ng after 3 days by disc diffusion method; assay type: functional
# [19] = system: Mycobacteroides abscessus; assay: Antimycobacterial activity against Mycobacterium abscessus FM0058 clinical isolate assessed as inhibition zone diameter at 200 ng after 3 days by disc diffusion method; assay type: functional
# [20] = system: Mycobacteroides abscessus; assay: Antimycobacterial activity against Mycobacterium abscessus FM0058 clinical isolate assessed as inhibition zone diameter at 100 ng after 3 days by disc diffusion method; assay type: functional
# [21] = system: Mycobacteroides abscessus; assay: Antimycobacterial activity against Mycobacterium abscessus FM0058 clinical isolate assessed as inhibition zone diameter at 50 ng after 3 days by disc diffusion method; assay type: functional
# [22] = system: Mycobacteroides abscessus; assay: Antimycobacterial activity against Mycobacterium abscessus FM0058 clinical isolate assessed as inhibition zone diameter at 25 ng after 3 days by disc diffusion method; assay type: functional
# [23] = system: Mycobacteroides abscessus; assay: Antimycobacterial activity against Mycobacterium abscessus FM0058 clinical isolate assessed as inhibition zone diameter at 12.5 ng after 3 days by disc diffusion method; assay type: functional
# [24] = system: Mycobacteroides abscessus; assay: Antimycobacterial activity against Mycobacterium abscessus FM0058 clinical isolate assessed as inhibition zone diameter at 6.25 ng after 3 days by disc diffusion method; assay type: functional
# [25] = system: Mycobacteroides abscessus; assay: Antimycobacterial activity against Mycobacterium abscessus FM0058 clinical isolate assessed as inhibition zone diameter at 3.125 ng after 3 days by disc diffusion method; assay type: functional
# [26] = system: Mycobacteroides abscessus; assay: Antimycobacterial activity against Mycobacterium abscessus FM0058 clinical isolate assessed as inhibition zone diameter at 1.56 ng after 3 days by disc diffusion method; assay type: functional
# [27] = system: Mycobacteroides abscessus; assay: Antimycobacterial activity against Mycobacterium abscessus ATCC 19977 assessed as inhibition zone diameter at <3 ng after 3 days by disc diffusion method; assay type: functional, organism-based
# [28] = system: Mycobacteroides abscessus; assay: Antimycobacterial activity against Mycobacterium abscessus FM0058 clinical isolate assessed as inhibition zone diameter at <3 ng after 3 days by disc diffusion method; assay type: functional, organism-based
# [29] = Drug metabolism in Mycobacterium abscessus ATCC 19977 assessed as C23 ribosylated derivative formation by LC/MS analysis relative to control; assay type: ADME; conditions: Mycobacteroides abscessus
# [30] = Drug metabolism in Mycobacterium abscessus ATCC 19977 assessed as adenine ribosylated diphosphate derivative formation by LC/MS analysis; assay type: ADME; conditions: Mycobacteroides abscessus
structure (smiles),measurement,setting,value
CO[C@H]1/C=C/O[C@@]2(C)Oc3c(C)c(O)c4c(c3C2=O)C(=O)C(N2CCOCC2)=C(NC(=O)/C(C)=C\C=C\[C@H](C)[C@H](O)[C@@H](C)[C@@H](O)[C@@H](C)[C@H](OC(=O)NC2CCN(Cc3ccccc3)CC2)[C@@H]1C)C4=O,diameter of the inhibition zone (DIZ),[1],0 mm
same,MIC,[2],0.25 mg/L
same,MIC,[3],0.0625 mg/L
same,MIC,[4],< 0.03 mg/L
same,MIC,[5],< 0.03 mg/L
same,MIC,[6],< 0.03 mg/L
same,MIC,[7],0.12 mg/L
same,diameter of the inhibition zone (DIZ),[8],>30 mm
same,diameter of the inhibition zone (DIZ),[9],>30 mm
same,diameter of the inhibition zone (DIZ),[10],>30 mm
same,diameter of the inhibition zone (DIZ),[11],24 mm
same,diameter of the inhibition zone (DIZ),[12],21 mm
same,diameter of the inhibition zone (DIZ),[13],16 mm
same,diameter of the inhibition zone (DIZ),[14],13 mm
same,diameter of the inhibition zone (DIZ),[15],0 mm
same,diameter of the inhibition zone (DIZ),[16],0 mm
same,diameter of the inhibition zone (DIZ),[17],>30 mm
same,diameter of the inhibition zone (DIZ),[18],>30 mm
same,diameter of the inhibition zone (DIZ),[19],29 mm
same,diameter of the inhibition zone (DIZ),[20],24 mm
same,diameter of the inhibition zone (DIZ),[21],22 mm
same,diameter of the inhibition zone (DIZ),[22],20 mm
same,diameter of the inhibition zone (DIZ),[23],16 mm
same,diameter of the inhibition zone (DIZ),[24],11 mm
same,diameter of the inhibition zone (DIZ),[25],0 mm
same,diameter of the inhibition zone (DIZ),[26],0 mm
same,diameter of the inhibition zone (DIZ),[27],inactive
same,diameter of the inhibition zone (DIZ),[28],inactive
same,Drug metabolism,[29],Metabolite_Notdetected
same,Drug metabolism,[30],Metabolite_Notdetected
